Tests used:
[1] = tested on: HER2^+ metastases and DCCs; assay: Metastasis, CTC and DCC quantification in MMTV-HER2 mice; format: in vivo, mouse; conditions: 50 mpk i.p. daily, two weeks
Procedure: (§1) Mice, tumor growth, and tissue processing: The FVB/N-Tg (MMTVneu) mouse strain was obtained from Jackson Laboratories (Sacramento, Calif.). […] Before being used in any experiment, females underwent one round of pregnancy and at least two weeks of no lactation after weaning. Females between 24-32 weeks of age were injected intraperitoneally with vehicle (90% corn oil, 10% ethanol) or LY4 (50 mpk) daily, for two weeks. For the combination treatment, females 24-32 weeks of age were treated daily by oral gavage with Abemaciclib (50 mpk) for 4 weeks before starting the treatment described earlier with LY4. Tumor volumes were measured using the formula (Dxd^2)/2, where D is the longest and d is the shortest diameter. For CTC count, animals were anesthetized and whole blood was extracted by cardiac puncture. Mammary glands, lungs, and tumors were collected and fixed in 10% buffered formalin overnight before paraffin embedding. The bone marrow from the two lower limbs was flushed with a 26 G needle and further processed by Ficoll density gradient centrifugation. For CTC as well as for DTC detection in bone marrow, tissues were depleted of mature hematopoietic cells by anti-mouse antibody-labeled magnetic bead separation (Miltenyi Biotec, San Diego, Calif.) before fixation in formalin for 20 minutes at 4° C.
(§2) IHC and IF: IHC and IF from paraffin-embedded sections was performed as previously described (Avivar-Valderas et al., “Regulation of Autophagy during ECM Detachment is Linked to a Selective Inhibition of mTORC1 by PERK,” Oncogene 32(41):4932-40 (2013), which is hereby incorporated by reference in its entirety). Briefly, slides were dewaxed and serially rehydrated. Heat-induced antigen retrieval was performed in either citrate buffer (10 mM, pH 6), EDTA buffer (1 mM, pH 8), or Tris/EDTA (pH9). Slides were further permeabilized in 0.1% Triton™-X100, blocked and incubated with primary antibody overnight at 4° C. at 1:50-1:200 dilution. For IHC, an additional step of endogenous peroxidase and avidin/biotin quenching was performed before primary antibody incubation. […] Next, slides were incubated in secondary antibodies (Life Technologies, Norwalk, Conn.) and mounted. For IHC, sections were processed using VectaStain ABC Elite kit (Vector Laboratories, Bulingame, Calif.) and DAB Substrate kit for peroxidase labelling (Vector Laboratories) and mounted in VectaMount medium (Vector laboratories). For IF, sections were mounted in ProLong Gold Antifade aqueous medium (Thermo Fisher, Waltham, Mass.).
In the case of immunocytofluorescence, cytospins of fixed cells (100,000-200,000 cells/cytospin were prepared by cyto-centrifugation at 500 rpm for 3 minutes on poly-prep slides, and the staining protocol was performed as explained below from the permeabilization onward. For the staining of 3D cultures, acini were fixed in 4% PFA for 20 minutes at 4° C., permeabilized with 0.5% Triton™-X100 in PBS for 20 minutes at room temperature, washed in PBS-glycine, and then blocked with 10% normal goat serum for 1 hour at 37° C., before performing immunofluorescence staining.

[2] = tested on: MMTV-HER2 mammary glands; assay: Mammary gland whole mount and histology of early lesions in MMTV-HER2 mice; format: in vivo, mouse; conditions: 50 mpk, two weeks
Procedure: as §1
Mammary gland whole mount staining. Mammary glands fixed in 10% buffered formalin were incubated in Carmine Alum stain (Carmine 0.2%, Aluminum potassium sulfate 0.5%) (Sigma, St. Louis, Mo.) for 2 days. Then, they were dehydrated and transferred to methyl salicylate solution before imaging using a stereomicroscope.
The scoring for P-HER2 levels is explained in FIG. 10A. For the scoring of CK8/18 and SMA in mammary gland ducts, 20 low magnification fields were evaluated per animal for the expression of CK8/18 as negative (0), low (1), or high (2) and the same for SMA and the sum of the two scores was considered as the final score (from 0 to 4).

[3] = tested on: HER2^+ tumors; assay: Growth of overt tumors in MMTV-HER2 females; format: in vivo, mouse
Procedure: as §1, §2
TUNEL in situ cell death detection: Apoptosis levels were evaluated using the In situ Cell Death Detection kit, AP (Roche, Basel, Switzerland). Paraffin sections from tumors were dewaxed, rehydrated, and permeabilized in phosphate buffered saline (PBS) 0.2% TRITON™-X100 for 8 minutes. Then, slides were washed and blocked in 20% normal goat serum for 1 hour at 37° C. The TUNEL reaction mixture was then added and let go for 1 hour at 37° C. The reaction was stopped by incubating with Buffer I(0.3 M Sodium chloride, 30 mM Sodium citrate). Next, the slides were incubated with anti-fluorescein-AP antibody for 30 minutes at 37° C. After three washes in Tris buffered saline (TBS), slides were incubated in alkaline phosphatase substrate in 0.1% TWEEN™-20 for 20 min at room temperature. Finally, the slides were mounted using aqueous mounting medium. The percentage of TUNEL positive cells was calculated using Image J software (NIH).

[4] = tested on: Braf-mutant melanoma WM35 cells; assay: WM35 melanoma cell viability in 2D and 3D culture, GADD34 western blot; format: cell-based; conditions: after persistent treatment with Abemaciclib
Procedure: FIGS. 12A-12G show proposed mono or combination therapies that include the use of LY4 and experiments showing that the treatment of melanoma cells with the CDK4/6 inhibitor Abemaciclib in combination with LY4 differentially affects in vitro cell viability in 2D and 3D culture. FIG. 12A is a schematic illustration of the rationale for the combination of Abemaciclib and LY4. FIG. 12B is a bar graph showing the results of an in vitro treatment of Braf-mutant melanoma cells (WM35) with 0 nM, 10 nM, or 50 nM Abemaciclib for 1 week followed by 48 hour treatment with 2 μM LY4. FIG. 12C includes images of cells stained with DAPI following pre-treatment with Abemaciclib for 1 week, followed by treatment with 2 μM LY4. 5,000 cells were seeded on matrigel. In FIGS. 12D-12E, WM35 melanoma cells were pre-treated with Abemaciclib for 5 weeks, followed by treatment with LY4 in complete media and Abemaciclib. Cells were stained with Trypan blue to identify viable cells. FIG. 12D is a graph showing Abemaciclib sensitive cells. FIG. 12E is a graph showing Abemaciclib-resistant cells. FIG. 12F show images of cells stained with DAPI following pre-treatment with Abemaciclib for 5 weeks and co-treatment with 2 μM LY4 and Abemaciclib. 1,000 cells were seeded on matrigel. […]

SMILES: Cc1cc(NC(=O)[C@H](O)c2cc(F)cc(F)c2)ccc1-c1cnc(N)c(C(=O)NC(C)C)c1 [LY4, 2-amino-5-[4-[[(2R)-2-(3,5-difluorophenyl)-2-hydroxy-acetyl]amino]-2-methyl-phenyl]-N-isopropyl-pyridine-3-carboxamide]
- HER2^+ circulating tumor cells in blood [1]: no significant difference between vehicle and LY4-treated animals
- area of macro-metastases [1]: without affecting the area of these metastases
- number and incidence of lung macro-metastases (>100 cells) [1]: reduced the number and the incidence of macro-metastases
- number of DCCs in bone marrow [1]: significantly decreased the number of DCCs found in bone marrow
- number of P-Rb negative single DCCs in lung sections [1]: strongly reduced the number of non-proliferating (P-Rb negative) single DCCs
- number of P-Rb positive solitary DTCs in lung [1]: without affecting the number of P-Rb positive solitary DTCs
- number of lung micro-metastases (2-100 cells) [1]: significant decrease in the number of micro-metastases
- cytokeratin 8/18 expression in the luminal layer of mammary ducts [2]: increased expression of cytokeratin 8/18 in the luminal layer
- number of occluded hyperplasias and DCIS-like lesions [2]: reduced to less than half of that in vehicle-treated animals
- hollow lumen mammary gland ducts, share of structures ([2]; around 20% in control females): more than 60%
- tumors remaining in complete cytostasis ([3]; 2-week treatment, 7% in controls): 43%
- tumors showing regression ([3]; 2-week window treatment): 25%
- P-HER2 levels in tumors (IHC score) ([3]; 50 mpk, two weeks): significantly lower levels of P-HER2 than control animals
- TUNEL staining of tumor sections (DNA fragmentation) ([3]; 50 mpk, two weeks): significant increase in the levels of DNA fragmentation
- median final tumor volume ([3]; 50 mpk, two weeks): significant decrease in median final tumor volume
- proliferation in tumors (P-histone H3 IHC) ([3]; 50 mpk, two weeks): not different between vehicle- and LY4-treated tumors
- tumor growth rate ([3]; 50 mpk, two weeks): reduced growth rate
- viability of Abemaciclib resistant WM35 cells, 3D [4]: additive effect on decreasing viability in 3D cell culture

Reference: patent US20210121527A1, “METHODS OF TREATING MINIMAL RESIDUAL CANCER” (ICAHN SCHOOL OF MEDICINE AT MOUNT SINAI, priority 2018, published 2021)
